Bridge positions count the residues as written; N and C are the ends. Square brackets hold non-standard residues; d marks the D form. Peptide text beside a SMILES is read from it. * marks the point of attachment. X2 = CCCCCCCCCCCCCCO[C@@H]1O[C@H](CO[C@H]2O[C@H](C(=O)*)[C@H](O)[C@H](O)[C@H]2O)[C@@H](O)[C@H](O)[C@H]1O; βGlcA(1-O-hexadecyl) = CCCCCCCCCCCCCCCCO[C@@H]1O[C@H](C(=O)*)[C@@H](O)[C@H](O)[C@H]1O; Aib = CC(C)(N)C(=O)O
Experiments:
[1] = molecular target: T1, human GLP-1 receptor (Homo sapiens, UniProt P43220); assay: DiscoveRx LeadHunter cellular assay, cAMP stimulation, GLP-1 receptor in CHO cells; format: cell-based; details: human GLP-1 receptor in CHO cells (DiscoveRx); read-out: EC50 cAMP GLP-1 R
T1 construct: host or cells: CHO cells

[2] = molecular target: T2, human glucagon receptor (Homo sapiens, UniProt P47871); assay: DiscoveRx LeadHunter cellular assay, cAMP stimulation, glucagon receptor in CHO cells; format: cell-based
T2 construct: host or cells: CHO cells
T2 sequence (P47871 26-477): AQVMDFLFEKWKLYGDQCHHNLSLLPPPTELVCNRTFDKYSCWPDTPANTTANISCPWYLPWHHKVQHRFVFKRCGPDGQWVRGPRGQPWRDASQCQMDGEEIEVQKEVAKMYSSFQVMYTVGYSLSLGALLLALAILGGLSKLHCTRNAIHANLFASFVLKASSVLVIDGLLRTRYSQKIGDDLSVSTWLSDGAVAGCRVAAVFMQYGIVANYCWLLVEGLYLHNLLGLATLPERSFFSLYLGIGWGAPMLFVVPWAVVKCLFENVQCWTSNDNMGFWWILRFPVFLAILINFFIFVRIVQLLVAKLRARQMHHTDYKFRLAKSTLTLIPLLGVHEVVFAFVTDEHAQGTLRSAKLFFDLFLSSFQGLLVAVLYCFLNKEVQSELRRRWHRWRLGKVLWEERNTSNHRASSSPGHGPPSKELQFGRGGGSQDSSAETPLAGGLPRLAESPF

T1 sequence (P43220 24-463): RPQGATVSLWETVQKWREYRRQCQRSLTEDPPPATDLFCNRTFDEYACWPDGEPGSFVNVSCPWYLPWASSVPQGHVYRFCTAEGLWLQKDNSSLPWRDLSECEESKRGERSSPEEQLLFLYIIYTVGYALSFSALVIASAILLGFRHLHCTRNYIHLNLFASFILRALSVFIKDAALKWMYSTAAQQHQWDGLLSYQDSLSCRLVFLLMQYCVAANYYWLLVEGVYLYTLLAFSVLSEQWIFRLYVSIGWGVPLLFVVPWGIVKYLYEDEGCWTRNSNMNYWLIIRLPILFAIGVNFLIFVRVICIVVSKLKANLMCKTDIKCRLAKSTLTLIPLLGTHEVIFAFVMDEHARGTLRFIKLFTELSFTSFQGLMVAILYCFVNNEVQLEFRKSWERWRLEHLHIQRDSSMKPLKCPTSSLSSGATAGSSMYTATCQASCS

Row | EC50 [1] | EC50 [2] | SMILES
1 | 0.022 nM | 0.126 nM | CCCCCCCCCCCCCCO[C@@H]1O[C@H](CO[C@H]2O[C@H](C(=O)N[C@@H](CCC(=O)NCCCC[C@H](NC(=O)[C@@H](NC(=O)[C@H](Cc3ccccc3)NC(=O)[C@H](CCC(=O)O)NC(=O)[C@@H]3CCCCNC(=O)CC[C@H](NC(=O)[C@H](CC(=O)O)NC(=O)[C@H](CC(C)C)NC(=O)[C@H](Cc4ccc(O)cc4)NC(=O)[C@H](CCCCN)NC(=O)[C@H](CO)NC(=O)[C@H](Cc4ccc(O)cc4)NC(=O)[C@H](CC(=O)O)NC(=O)[C@H](CO)NC(=O)[C@@H](NC(=O)[C@H](Cc4ccccc4)NC(=O)[C@@H](NC(=O)CNC(=O)[C@H](CCC(N)=O)NC(=O)C(C)(C)NC(=O)[C@@H](N)Cc4c[nH]cn4)[C@@H](C)O)[C@@H](C)O)C(=O)N[C@@H](CCC(N)=O)C(=O)N[C@@H](C)C(=O)N[C@@H](C)C(=O)N3)[C@@H](C)CC)C(=O)N[C@@H](Cc3c[nH]c4ccccc34)C(=O)N[C@@H](CC(C)C)C(=O)N[C@@H](CC(C)C)C(=O)N[C@@H](CCC(N)=O)C(=O)N[C@H](C(N)=O)[C@@H](C)O)C(=O)O)[C@H](O)[C@H](O)[C@H]2O)[C@@H](O)[C@H](O)[C@H]1O [EU-A1607]
2 | 0.308 nM | 2.51 nM | CCCCCCCCCCCCCCCCO[C@@H]1O[C@H](C(=O)NCCCC[C@H](N)C(=O)NCCCC[C@H](NC(=O)[C@@H](NC(=O)[C@H](Cc2ccccc2)NC(=O)[C@H](CCC(=O)O)NC(=O)[C@@H]2CCCCNC(=O)CC[C@H](NC(=O)[C@H](CC(=O)O)NC(=O)[C@H](CC(C)C)NC(=O)[C@H](Cc3ccc(O)cc3)NC(=O)[C@H](CCCCN)NC(=O)[C@H](CO)NC(=O)[C@H](Cc3ccc(O)cc3)NC(=O)[C@H](CC(=O)O)NC(=O)[C@H](CO)NC(=O)[C@@H](NC(=O)[C@H](Cc3ccccc3)NC(=O)[C@@H](NC(=O)CNC(=O)[C@H](CCC(N)=O)NC(=O)C(C)(C)NC(=O)[C@@H](N)Cc3c[nH]cn3)[C@@H](C)O)[C@@H](C)O)C(=O)N[C@@H](CCC(N)=O)C(=O)N[C@@H](C)C(=O)N[C@@H](C)C(=O)N2)[C@@H](C)CC)C(=O)N[C@@H](Cc2c[nH]c3ccccc23)C(=O)N[C@@H](CC(C)C)C(=O)N[C@@H](CC(C)C)C(=O)N[C@@H](CCC(N)=O)C(=O)N[C@H](C(N)=O)[C@@H](C)O)[C@@H](O)[C@H](O)[C@H]1O [EU-A1713]
3 | 0.029 nM | 0.332 nM | CCCCCCCCCCCCCCO[C@@H]1O[C@H](C(=O)NCCCC[C@H](NC(=O)[C@@H](NC(=O)[C@H](Cc2ccccc2)NC(=O)[C@H](CCC(=O)O)NC(=O)[C@@H]2CCCCNC(=O)CC[C@H](NC(=O)[C@H](CC(=O)O)NC(=O)[C@H](CC(C)C)NC(=O)[C@H](Cc3ccc(O)cc3)NC(=O)[C@H](CCCCN)NC(=O)[C@H](CO)NC(=O)[C@H](Cc3ccc(O)cc3)NC(=O)[C@H](CC(=O)O)NC(=O)[C@H](CO)NC(=O)[C@@H](NC(=O)[C@H](Cc3ccccc3)NC(=O)[C@@H](NC(=O)CNC(=O)[C@H](CCC(N)=O)NC(=O)C(C)(C)NC(=O)[C@@H](N)Cc3c[nH]cn3)[C@@H](C)O)[C@@H](C)O)C(=O)N[C@@H](CCC(N)=O)C(=O)N[C@@H](C)C(=O)N[C@@H](C)C(=O)N2)[C@@H](C)CC)C(=O)N[C@@H](Cc2c[nH]c3ccccc23)C(=O)N[C@@H](CC(C)C)C(=O)N[C@@H](CC(C)C)C(=O)N[C@@H](CCC(N)=O)C(=O)N[C@H](C(=O)NCCOCCOCCOCCOCCOCCOCCOCCOCCC(=O)O)[C@@H](C)O)[C@@H](O)[C@H](O)[C@H]1O [EU-A1646]
4 | 0.013 nM | 0.032 nM | CCCCCCCCCCO[C@@H]1O[C@H](C(=O)N[C@@H](CCC(=O)NCCCC[C@H](NC(=O)[C@@H](NC(=O)[C@H](Cc2ccccc2)NC(=O)[C@H](CCC(=O)O)NC(=O)[C@@H]2CCCCNC(=O)CC[C@H](NC(=O)[C@H](CC(=O)O)NC(=O)[C@H](CC(C)C)NC(=O)[C@H](Cc3ccc(O)cc3)NC(=O)[C@H](CCCCN)NC(=O)[C@H](CO)NC(=O)[C@H](Cc3ccc(O)cc3)NC(=O)[C@H](CC(=O)O)NC(=O)[C@H](CO)NC(=O)[C@@H](NC(=O)[C@H](Cc3ccccc3)NC(=O)[C@@H](NC(=O)CNC(=O)[C@H](CCC(N)=O)NC(=O)C(C)(C)NC(=O)[C@@H](N)Cc3c[nH]cn3)[C@@H](C)O)[C@@H](C)O)C(=O)N[C@@H](CCC(N)=O)C(=O)N[C@@H](C)C(=O)N[C@@H](C)C(=O)N2)[C@@H](C)CC)C(=O)N[C@@H](Cc2c[nH]c3ccccc23)C(=O)N[C@@H](CC(C)C)C(=O)N[C@@H](CC(C)C)C(=O)N[C@@H](CCC(N)=O)C(=O)N[C@H](C(N)=O)[C@@H](C)O)C(=O)O)[C@@H](O)[C@H](O)[C@H]1O [EU-A1716]
5 | 0.095 nM | 0.746 nM | CCCCCCCCCCCCCCCCO[C@@H]1O[C@H](C(=O)N[C@@H](CCC(=O)NCCCC[C@H](NC(=O)[C@@H](NC(=O)[C@H](Cc2ccccc2)NC(=O)[C@H](CCC(=O)O)NC(=O)[C@@H]2CCCCNC(=O)CC[C@H](NC(=O)[C@H](CC(=O)O)NC(=O)[C@H](CC(C)C)NC(=O)[C@H](Cc3ccc(O)cc3)NC(=O)[C@H](CCCCN)NC(=O)[C@H](CO)NC(=O)[C@H](Cc3ccc(O)cc3)NC(=O)[C@H](CC(=O)O)NC(=O)[C@H](CO)NC(=O)[C@@H](NC(=O)[C@H](Cc3ccccc3)NC(=O)[C@@H](NC(=O)CNC(=O)[C@H](CCC(N)=O)NC(=O)C(C)(C)NC(=O)[C@@H](N)Cc3c[nH]cn3)[C@@H](C)O)[C@@H](C)O)C(=O)N[C@@H](CCC(N)=O)C(=O)N[C@@H](C)C(=O)N[C@@H](C)C(=O)N2)[C@@H](C)CC)C(=O)N[C@@H](Cc2c[nH]c3ccccc23)C(=O)N[C@@H](CC(C)C)C(=O)N[C@@H](CC(C)C)C(=O)N[C@@H](CCC(N)=O)C(=O)N[C@H](C(N)=O)[C@@H](C)O)C(=O)O)[C@@H](O)[C@H](O)[C@H]1O [EU-A1719]
6 | 0.028 nM | 0.062 nM | CCCCCCCCCCCCO[C@@H]1O[C@H](C(=O)N[C@@H](CCC(=O)N[C@@H](CCC(=O)NCCCC[C@H](NC(=O)[C@@H](NC(=O)[C@H](Cc2ccccc2)NC(=O)[C@H](CCC(=O)O)NC(=O)[C@@H]2CCCCNC(=O)CC[C@H](NC(=O)[C@H](CC(=O)O)NC(=O)[C@H](CC(C)C)NC(=O)[C@H](Cc3ccc(O)cc3)NC(=O)[C@H](CCCCN)NC(=O)[C@H](CO)NC(=O)[C@H](Cc3ccc(O)cc3)NC(=O)[C@H](CC(=O)O)NC(=O)[C@H](CO)NC(=O)[C@@H](NC(=O)[C@H](Cc3ccccc3)NC(=O)[C@@H](NC(=O)CNC(=O)[C@H](CCC(N)=O)NC(=O)C(C)(C)NC(=O)[C@@H](N)Cc3c[nH]cn3)[C@@H](C)O)[C@@H](C)O)C(=O)N[C@@H](CCC(N)=O)C(=O)N[C@@H](C)C(=O)N[C@@H](C)C(=O)N2)[C@@H](C)CC)C(=O)N[C@@H](Cc2c[nH]c3ccccc23)C(=O)N[C@@H](CC(C)C)C(=O)N[C@@H](CC(C)C)C(=O)N[C@@H](CCC(N)=O)C(=O)N[C@H](C(N)=O)[C@@H](C)O)C(=O)O)C(=O)O)[C@@H](O)[C@H](O)[C@H]1O [EU-A1723]
7 | 0.008 nM | 0.24 nM | CCCCCCCCCCCCCCCCO[C@@H]1O[C@H](CO[C@H]2O[C@H](C(=O)NCCCC[C@H](NC(=O)[C@@H](NC(=O)[C@H](Cc3ccccc3)NC(=O)[C@H](CCC(=O)O)NC(=O)[C@@H]3CCCCNC(=O)CC[C@H](NC(=O)[C@H](CC(=O)O)NC(=O)[C@H](CC(C)C)NC(=O)[C@H](Cc4ccc(O)cc4)NC(=O)[C@H](CCCCN)NC(=O)[C@H](CO)NC(=O)[C@H](Cc4ccc(O)cc4)NC(=O)[C@H](CC(=O)O)NC(=O)[C@H](CO)NC(=O)[C@@H](NC(=O)[C@H](Cc4ccccc4)NC(=O)[C@@H](NC(=O)CNC(=O)[C@H](CCC(N)=O)NC(=O)C(C)(C)NC(=O)[C@@H](N)Cc4c[nH]cn4)[C@@H](C)O)[C@@H](C)O)C(=O)N[C@@H](CCC(N)=O)C(=O)N[C@@H](C)C(=O)N[C@@H](C)C(=O)N3)[C@@H](C)CC)C(=O)N[C@@H](Cc3c[nH]c4ccccc34)C(=O)N[C@@H](CC(C)C)C(=O)N[C@@H](CC(C)C)C(=O)N[C@@H](CCC(N)=O)C(=O)N[C@H](C(N)=O)[C@@H](C)O)[C@H](O)[C@H](O)[C@H]2O)[C@@H](O)[C@H](O)[C@H]1O [EU-A1025]
8 | 1.02 nM | 10 nM | CCCCCCCCCCCCCCCCO[C@@H]1O[C@H](C(=O)NCCCC[C@H](NC(=O)[C@H](C)NC(=O)[C@H](C)NC(=O)[C@H](CCC(N)=O)NC(=O)[C@@H]2CCCCNC(=O)CC[C@H](NC(=O)[C@H](CO)NC(=O)[C@H](Cc3ccc(O)cc3)NC(=O)[C@H](CC(=O)O)NC(=O)[C@H](CO)NC(=O)[C@@H](NC(=O)[C@H](Cc3ccccc3)NC(=O)[C@@H](NC(=O)CNC(=O)[C@H](CCC(N)=O)NC(=O)C(C)(C)NC(=O)[C@@H](N)Cc3c[nH]cn3)[C@@H](C)O)[C@@H](C)O)C(=O)N[C@@H](Cc3ccc(O)cc3)C(=O)N[C@@H](CC(C)C)C(=O)N[C@@H](CC(=O)O)C(=O)N2)C(=O)N[C@@H](CCC(=O)O)C(=O)N[C@@H](Cc2ccccc2)C(=O)N[C@H](C(=O)N[C@@H](CCC(N)=O)C(=O)N[C@@H](Cc2c[nH]c3ccccc23)C(=O)N[C@@H](CC(C)C)C(=O)N[C@@H](CC(C)C)C(=O)N[C@@H](CCC(N)=O)C(=O)N[C@H](C(N)=O)[C@@H](C)O)[C@@H](C)CC)[C@@H](O)[C@H](O)[C@H]1O [EU-A1745] (H-H[Aib]QGTFTSDYSEYLDKQAAK(βGlcA(1-O-hexadecyl))EFIQWLLQT-NH2; lactam 12-16; N-terminus assumed)
9 | 0.056 nM | 2.22 nM | CCCCCCCCCCCCCCO[C@@H]1O[C@H](CO[C@H]2O[C@H](C(=O)NCCCC[C@H](NC(=O)[C@H](C)NC(=O)[C@H](C)NC(=O)[C@H](CCC(N)=O)NC(=O)[C@@H]3CCCCNC(=O)CC[C@H](NC(=O)[C@H](CO)NC(=O)[C@H](Cc4ccc(O)cc4)NC(=O)[C@H](CC(=O)O)NC(=O)[C@H](CO)NC(=O)[C@@H](NC(=O)[C@H](Cc4ccccc4)NC(=O)[C@@H](NC(=O)CNC(=O)[C@H](CCC(N)=O)NC(=O)C(C)(C)NC(=O)[C@@H](N)Cc4c[nH]cn4)[C@@H](C)O)[C@@H](C)O)C(=O)N[C@@H](Cc4ccc(O)cc4)C(=O)N[C@@H](CC(C)C)C(=O)N[C@@H](CC(=O)O)C(=O)N3)C(=O)N[C@@H](CCC(=O)O)C(=O)N[C@@H](Cc3ccccc3)C(=O)N[C@H](C(=O)N[C@@H](CCC(N)=O)C(=O)N[C@@H](Cc3c[nH]c4ccccc34)C(=O)N[C@@H](CC(C)C)C(=O)N[C@@H](CC(C)C)C(=O)N[C@@H](CCC(N)=O)C(=O)N[C@H](C(N)=O)[C@@H](C)O)[C@@H](C)CC)[C@H](O)[C@H](O)[C@H]2O)[C@@H](O)[C@H](O)[C@H]1O [EU-A1739] (H-H[Aib]QGTFTSDYSEYLDKQAAK(X2)EFIQWLLQT-NH2; lactam 12-16; N-terminus assumed)

From patent publication US11541028B2, “Peptide pharmaceuticals for treatment of NASH and other disorders” (Mederis Diabetes LLC, priority 2018, dated 2023)
